Where “and” joins values, the source holds several entries; their conditions need not be identical. Equal entries are not always repeated.
Test system: serum levels of 58 analytes
Assay: Serum biomarker analysis, quantitative immunoassay multi-analyte profiling (Rules-Based Medicine RodentMAP v2.9), AA#80
Type: in vivo, mouse
Method: In AA#80, serum samples were collected on Day 27, Day 34, Day 41 and Day 55 via the submandibular vein. Approximately 200 μL of blood per mouse was collected in Microtainer® serum separator tubes. Serum was removed following centrifugation and stored at <−65° C. until analysis.
Selected serum samples were sent to Rules-Based Medicine (Austin, Tex.) for quantitative immunoassay multi-analyte profiling of serum samples, with the goal of identifying biomarkers that could be used to monitor disease progression and response to B7-H4-Ig treatment. Day 27, Day 34, and Day 41 sera from the three representative mice in the B7-H4-Ig group (tag #3332, 3334, and 3338) and three representative mice in the Synagis® group (tag #3324, 3329, and 3330) were analyzed for levels of 58 analytes using the RodentMAP v2.9 Testing Service.
Data from the Rules-Based Medicine analysis was analyzed using Microsoft Excel and GraphPad Prism software. T-tests were performed to compare the levels of each analyte in the B7-H4-Ig versus Synagis® treated samples. No correction was made for multiple comparisons. Additionally, correlation coefficients were calculated for each analyte versus disease score.

Substance: Synagis®: humanized monoclonal IgG antibody against the F protein of Respiratory Syncytial Virus; used as a human IgG1 isotype control [reference compound]
- serum samples with undetectable GST-α levels (all samples (Day 27, 34, 41)): 7/9
- serum samples with TNF-α levels above the limit of detection (all samples (Day 27, 34, 41) (FIG. 16)): 5/9
- M-CSF (Macrophage-Colony Stimulating Factor) (serum, Day 34, LDD 0.01795, listed as Human LgG1 Control): 6.46 ng/mL and 6.3 ng/mL and 6.09 ng/mL
- MIP-1gamma (Macrophage Inflammatory Protein-1gamma) (serum, Day 34, LDD 0.0736, listed as Human LgG1 Control): 42.2 ng/mL and 41 ng/mL and 40.9 ng/mL
- TEMP-1 (Tissue Inhibitor of Metalicproteinase Type-1) (serum, Day 34, LDD 0.18, listed as Human LgG1 Control): 1.7 ng/mL and 1.88 ng/mL and 1.31 ng/mL
- IL-5 (Interleukin-5) (serum, Day 34, LDD 0.194, listed as Human LgG1 Control): 0.333 ng/mL and 0.474 ng/mL
- MIP-1alpha (Macrophage Inflammatory Protein-1alpha) (serum, Day 34, LDD 0.2255, listed as Human LgG1 Control): 3.13 ng/mL and 2.88 ng/mL and 2.93 ng/mL
- MIP-3beta (Macrophage Inflammatory Protein-3beta) (serum, Day 34, LDD 0.465, listed as Human LgG1 Control): 2.63 ng/mL and 2.52 ng/mL and 2.67 ng/mL
- Tissue Factor (serum, Day 34, LDD 0.5175, listed as Human LgG1 Control): 10.8 ng/mL and 10 ng/mL and 12.5 ng/mL
- MPO (Myeloperoxidase) (serum, Day 34, LDD 0.95, listed as Human LgG1 Control): 253 ng/mL and 254 ng/mL
- SGOT (Serum Glutamic-Oxaloacetic Transaminase) (serum, Day 34, LDD 1.86, listed as Human LgG1 Control): 75 µg/mL and 140 µg/mL and 81.9 µg/mL
- TPO (Thromboproletin) (serum, Day 34, LDD 2.66, listed as Human LgG1 Control): 36.1 ng/mL and 34.2 ng/mL and 39.8 ng/mL
- SAP (Setrum Amtyloid P) (serum, Day 34, LDD 5.4, listed as Human LgG1 Control): 38.4 µg/mL and 48.6 µg/mL and 38.3 µg/mL
- MIP-2 (Macrophage Inflammatory Protein-2) (serum, Day 34, LDD 7.174, listed as Human LgG1 Control): 27.2 pg/mL and 32.3 pg/mL and 33.6 pg/mL
- MMP-9 (Matrix Metalloproteinase-9) (serum, Day 34, LDD 10, listed as Human LgG1 Control): 207 ng/mL and 259 ng/mL and 283 ng/mL
- MCP-1 (Monocyte Chemoattractant Protein-1) (serum, Day 34, LDD 16.924, listed as Human LgG1 Control): 99.8 pg/mL and 78.3 pg/mL and 117 pg/mL
- VCAM-1 (Vescular Cell Adhesion Molecule-1) (serum, Day 34, LDD 19, listed as Human LgG1 Control): 2290 ng/mL and 2120 ng/mL and 2450 ng/mL
- MDC (Macrophage-Derived Chemokine) (serum, Day 34, LDD 21.85, listed as Human LgG1 Control): 1270 pg/mL and 1320 pg/mL and 1130 pg/mL
- Myoglobin (serum, Day 34, LDD 24, listed as Human LgG1 Control): 10 ng/mL and 9.69 ng/mL and 12.7 ng/mL
- MCP-3 (Monocyte Chemoattractant Protein-3) (serum, Day 34, LDD 31.36, listed as Human LgG1 Control): 188 pg/mL and 180 pg/mL and 193 pg/mL
- VEGF (Vescular Endotheial Cell Growth Factor) (serum, Day 34, LDD 38.2, listed as Human LgG1 Control): 92.6 pg/mL and 128 pg/mL and 114 pg/mL
- IP-10 (Inducible Protein-10) (serum, Day 34, LDD 40.28, listed as Human LgG1 Control): 68.1 pg/mL and 52 pg/mL and 84.3 pg/mL
- LIF (Leukemia Infabitory Factor) (serum, Day 34, LDD 43.6, listed as Human LgG1 Control): 1620 pg/mL and 1430 pg/mL
- MCP-5 (Monocyte Chemoattractant Protein-5) (serum, Day 34, LDD 46.38, listed as Human LgG1 Control): 37.5 pg/mL and 46.2 pg/mL and 41 pg/mL
- SCF (Stem Cell Factor) (serum, Day 34, LDD 75.17, listed as Human LgG1 Control): 214 pg/mL and 182 pg/mL
- Lymphotactin (serum, Day 34, LDD 85.48, listed as Human LgG1 Control): 219 pg/mL and 151 pg/mL and 205 pg/mL
- VWF (Von Willebrand Factor) (serum, Day 34, LDD 98.6, listed as Human LgG1 Control): 107 ng/mL and 92.4 ng/mL and 139 ng/mL
- M-CSF (Macrophage-Colony Stimulating Factor) (serum, Day 41, LDD 0.01795, listed as Human LgG1 Control): 6.38 ng/mL and 5.22 ng/mL and 6.37 ng/mL
- MIP-1gamma (Macrophage Inflammatory Protein-1gamma) (serum, Day 41, LDD 0.0736, listed as Human LgG1 Control): 45.4 ng/mL and 44.8 ng/mL
- TEMP-1 (Tissue Inhibitor of Metalicproteinase Type-1) (serum, Day 41, LDD 0.18, listed as Human LgG1 Control): 3.54 ng/mL and 3.21 ng/mL and 4.33 ng/mL
- IL-5 (Interleukin-5) (serum, Day 41, LDD 0.194, listed as Human LgG1 Control): 0.616 ng/mL and 0.368 ng/mL and 0.333 ng/mL
- MIP-1alpha (Macrophage Inflammatory Protein-1alpha) (serum, Day 41, LDD 0.2255, listed as Human LgG1 Control): 3.03 ng/mL and 3.13 ng/mL and 3.32 ng/mL
- MIP-3beta (Macrophage Inflammatory Protein-3beta) (serum, Day 41, LDD 0.465, listed as Human LgG1 Control): 3.27 ng/mL and 2.73 ng/mL and 2.35 ng/mL
- Tissue Factor (serum, Day 41, LDD 0.5175, listed as Human LgG1 Control): 10.8 ng/mL and 9.17 ng/mL and 11.7 ng/mL
- MPO (Myeloperoxidase) (serum, Day 41, LDD 0.95, listed as Human LgG1 Control): 259 ng/mL and 263 ng/mL and 240 ng/mL
- SGOT (Serum Glutamic-Oxaloacetic Transaminase) (serum, Day 41, LDD 1.86, listed as Human LgG1 Control): 84 µg/mL and 93.9 µg/mL and 78.4 µg/mL
- TPO (Thromboproletin) (serum, Day 41, LDD 2.66, listed as Human LgG1 Control): 38 ng/mL and 39.8 ng/mL and 32.4 ng/mL
- SAP (Setrum Amtyloid P) (serum, Day 41, LDD 5.4, listed as Human LgG1 Control): 49.2 µg/mL and 46.2 µg/mL and 48.8 µg/mL
- MIP-2 (Macrophage Inflammatory Protein-2) (serum, Day 41, LDD 7.174, listed as Human LgG1 Control): 33.6 pg/mL and 50.3 pg/mL
- IL-6 (Interleukin-6) (serum, Day 41, LDD 13.852, listed as Human LgG1 Control): 74.2 pg/mL and 67.5 pg/mL and 93.7 pg/mL
- MCP-1 (Monocyte Chemoattractant Protein-1) (serum, Day 41, LDD 16.924, listed as Human LgG1 Control): 90.2 pg/mL and 129 pg/mL and 105 pg/mL
- VCAM-1 (Vescular Cell Adhesion Molecule-1) (serum, Day 41, LDD 19, listed as Human LgG1 Control): 2130 ng/mL and 1890 ng/mL and 1900 ng/mL

Reference: patent US9011853B2, “B7-H4 fusion proteins and methods of use thereof” (Amplimmune, Inc., priority 2009, dated 2015)
